Article PMC9697519, “New Theonellapeptolides from Indonesian Marine Sponge Theonella swinhoei as Anti-Austerity Agents” (Marine Drugs, 2022)
Read-outs that look alike come from different tables or passages of the source. Where a SMILES comes first, the peptide text is derived from it. Bridges are numbered along the chain shown (N, C = ends). [ ]: non-standard residue; d: D form. The star is where a group is joined. dNMeaIle = CC[C@H](C)[C@@H](NC)C(=O)O; d(aIle) = CC[C@H](C)[C@@H](N)C(=O)O; NMeI = CC[C@H](C)[C@H](NC)C(=O)O; dNMeL = CN[C@H](CC(C)C)C(=O)O; NMeV = CN[C@H](C(=O)O)C(C)C; Methoxyacetyl = COCC(=O)*; βAla = NCCC(=O)O

What was measured:
[1] = test system: Bacillus cereus NBRC 15305; settings: NBRC 15305, 22 h
Procedure: (§1) Previously, three theonellapeptolide members capped with a unique acyl group at their N-termini such as methylsulfinylacetyl, methylsulfanylacetyl, and acetyl were isolated by Tsuda et al. from Okinawan marine sponge Theonella sp.. Furthermore, the antibacterial activity of these variants was evaluated against four bacterial and six fungal strains. […] To the best of our knowledge, there is no report on the antibacterial activity of theonellapeptolides with methoxyacetyl group. This encouraged us to investigate the antibacterial activity of 1–6 against the Gram-negative bacterium Escherichia coli JW5503 and the Gram-positive bacteria Bacillus cereus NBRC 15305 and Kocuria rhizophila NBRC 12708.
(§2) After incubation for 22 h (30 °C), the obtained optical density was recorded using Tecan infinite® M200 plate reader at 600 nm to determine percent growth inhibition.

Escherichia coli JW5503 = settings: JW5503, 22 h
Procedure: as §1, §2

[2] = test system: Kocuria rhizophila NBRC 12708; settings: NBRC 12708, 22 h
Procedure: as §1, §2

[3] = test system: HepG2 (human liver cancer cells); settings: 24 h
Procedure: (§3) Finally, the anti-austerity activity on two other different cancer cell lines was studied. Preferential cytotoxicity was assessed in a nutrient-deprived medium. Esumi et al. hypothesized that tolerance to nutrient deprivation as well as angiogenesis might be an important factor in tumor progression under hypovascular condition.
(§4) Briefly, MIA PaCa-2, HepG2 and MCF-7 Cells (2 × 10^4 cells/well) were seeded in 96-well plates and incubated in fresh DMEM. The cells were washed with Dulbecco’s phosphate-buffered saline (PBS) before the medium was replaced with DMEM or NDM containing serial dilutions of the test samples. After 24 h of incubation, the cells were washed with PBS, and 100 μL of DMEM containing 10% WST-8 cell counting kit solution was added to each well. After 3 h of incubation, the absorbance was measured at 450 nm. Cell viability was calculated from the mean values for three wells. The preferential cytotoxicity was expressed as the concentration at which 50% of cells died preferentially in NDM (PC50).

[4] = test system: MCF-7 (human breast cancer cells); settings: 24 h
Procedure: as §3, §4

MIA PaCa-2 cells = test: Colony formation assay; format: cell-based, human; settings: then fresh DMEM 10 days, 500 cells/well, three replicates
Procedure: Figure 6 (A) Morphological changes of MIA PaCa-2 cells induced by 4 in a nutrient-deprived medium (NDM). MIA PaCa-2 tumor cells were treated with 4 at the indicated concentrations in NDM in a 24-well plate and incubated for 24 h. The cells were stained with ethidium bromide (EB) and acridine orange (AO), and photographed in the fluorescence (red and green) under phase contrast modes using a Nikon sCMOS camera oxford instrument, Hamamatsu Photonics/Ti-E. (B) Structure of bioactive compound 4. (C) Effect of 4 on colony formation by MIA PaCa-2 cells in DMEM. (a) Graph showing the average values of the area occupied by MIA PaCa-2 cell colonies (three replicates). **** p < 0.0001 compared to the untreated control group. (b) Representative wells showing colonies of MIA PaCa-2 cells.
Pancreatic cancer cells have a great ability to migrate to surrounding tissues, growing and forming new colonies after metastasis in distant organs with sufficient nutrition. These processes are responsible for the majority of deaths from pancreatic cancer. The phenomenon is called “colonization”, and occurs during cancer metastasis. Migrating pancreatic cancer cells are likely to form small colonies (micrometastases), which then become large tumors. The discovery of potential inhibitors of the colony-forming ability of pancreatic cancer represents a promising approach to prevent pancreatic tumor metastasis. […] Therefore, theonellapeptolides isolated from marine origin were studied for their ability to inhibit MIA PaCa-2 colony formation. MIA PaCa-2 cells (500 cells/well) were placed in a 24-well plate and treated with 4 at 12.5, 25, and 50 μM (non-cytotoxic concentrations) in DMEM for 24 h.
Subsequently, the medium was replaced with fresh DMEM, and the cells were allowed to grow as colonies for 10 days in a humified CO2 incubator at 37 °C. […]
Colony Formation inhibitory effect of 4 at different concentrations against MIA PaCa-2 cells was determined as described previously.

With `CC[C@H](C)[C@H]1C(=O)NCCC(=O)N[C@H]([C@@H](C)CC)C(=O)N(C)[C@@H](C(C)C)C(=O)N[C@@H](C)C(=O)NCCC(=O)N[C@H](CC(C)C)C(=O)N(C)[C@H]([C@@H](C)CC)C(=O)O[C@H](C)[C@H](NC(=O)[C@@H](CC(C)C)N(C)C(=O)[C@@H](NC(=O)COC)C(C)C)C(=O)NCCC(=O)N[C@H](CC(C)C)C(=O)N1C` [Compound 4, theonellapeptolide IId] (Methoxyacetyl-V[dNMeL]T[βAla][dL][NMeI][βAla][d(aIle)][NMeV]A[βAla][dL][dNMeaIle]; ester 3-C) the “MIC, BC” value [1] was greater than 66 µM, the “MIC, EC” value (Escherichia coli JW5503) was greater than 66 µM and the “MIC, KR” value [2] was greater than 66 µM. It also gave an IC50 ([3]; read-out: IC50 in DMEM, HepG2, nutrient-rich DMEM, WST-8, absorbance 450 nm, mean of three wells) greater than 100 µM, an IC50 ([3]; read-out: PC50 in NDM, HepG2, preferential cytotoxicity, nutrient-deprived medium (NDM), WST-8, mean of three wells) greater than 100 µM and an IC50 ([4]; read-out: IC50 in DMEM, MCF7, nutrient-rich DMEM, WST-8, absorbance 450 nm, mean of three wells) greater than 100 µM. For the same compound, the IC50 ([4]; read-out: PC50 in NDM, MCF7, preferential cytotoxicity, nutrient-deprived medium (NDM), WST-8, mean of three wells) was greater than 100 µM, the “total well area occupied by colonies” value (MIA PaCa-2 cells; 12.5 μM in DMEM for 24 h) was 100% and the colony formation (MIA PaCa-2 cells; 25 μM in DMEM for 24 h) was “total inhibition of colony formation”. For the same compound, the colony formation (MIA PaCa-2 cells; 50 μM in DMEM for 24 h) was “total inhibition of colony formation”.
